According to US6737383B1, “Herbicidal oxadiazolidines” (priority 1999, dated 2004):

Experiments:
giant foxtail = experiment: Test B pre/postemergence giant foxtail; format: in vivo, Setaria faberii
Procedure, shortened: (§1)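 Herbicidal effect was estimated by eye on a ten-point control scale after plants spent twelve to sixteen days in a greenhouse following soil or foliar treatment. Foliar sprays targeted plants at one to four leaves; all doses were formulated in a non-phytotoxic solvent with surfactant.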

wild oat = experiment: Test B pre/postemergence wild oat; format: in vivo, Avena fatua
Procedure, shortened: as §1

sugar beet = experiment: Test B pre/postemergence sugar beet; format: in vivo, Beta vulgaris
Procedure, shortened: as §1

rape = experiment: Test B pre/postemergence rape; format: in vivo, Brassica napus
Procedure, shortened: as §1

wheat = experiment: Test B pre/postemergence wheat; format: in vivo, Triticum aestivum
Procedure, shortened: as §1

corn = experiment: Test B pre/postemergence corn; format: in vivo, Zea mays
Procedure, shortened: as §1

rice = experiment: Test B flood test rice; format: in vivo, Oryza sativa
Procedure, shortened: (§2)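 Plants were grown to the 2-leaf stage before treatment with test chemical, then held in a greenhouse for twelve to sixteen days. Injury was visually rated against untreated controls on a 0–10 scale, where 0 is no effect and 10 is complete control.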

surinam grass = experiment: Test B pre/postemergence surinam grass; format: in vivo, Brachiaria decumbens
Procedure, shortened: as §1

velvetleaf = experiment: Test B pre/postemergence velvetleaf; format: in vivo, Abutilon theophrasti
Procedure, shortened: as §1

bedstraw = experiment: Test B pre/postemergence bedstraw; format: in vivo, Galium aparine
Procedure, shortened: as §1

soybean = experiment: Test B pre/postemergence soybean; format: in vivo, Glycine max
Procedure, shortened: as §1

smallflower flatsedge = experiment: Test B flood test smallflower flatsedge; format: in vivo, Cyperus difformis
Procedure, shortened: as §2

cocklebur = experiment: Test B pre/postemergence cocklebur; format: in vivo, Xanthium strumarium
Procedure, shortened: as §1

pigweed = experiment: Test B pre/postemergence pigweed; format: in vivo, Amaranthus retroflexus
Procedure, shortened: as §1

morningglory = experiment: Test B pre/postemergence morningglory; format: in vivo, Ipomoea hederacea
Procedure, shortened: as §1

blackgrass = experiment: Test B pre/postemergence blackgrass; format: in vivo, Alopecurus myosuroides
Procedure, shortened: as §1

[1] = Preemergence, Rate 62 g/ha, scale of 0 to 10 where 0 is no effect and 10 is complete control
[2] = Preemergence, Rate 250 g/ha, scale of 0 to 10 where 0 is no effect and 10 is complete control
[3] = Rate 125 g/ha, Postemergence, scale of 0 to 10 where 0 is no effect and 10 is complete control
[4] = Rate 125 g/ha, Preemergence, scale of 0 to 10 where 0 is no effect and 10 is complete control
[5] = Rate 250 g/ha, Postemergence, scale of 0 to 10 where 0 is no effect and 10 is complete control
[6] = Rate 500 g/ha, Postemergence, scale 0 to 10, 0 no effect, 10 complete control
[7] = Preemergence, Rate 500 g/ha, scale of 0 to 10 where 0 is no effect and 10 is complete control
[8] = Rate 62 g/ha, Postemergence, scale of 0 to 10 where 0 is no effect and 10 is complete control
[9] = Rate 62 g/ha, headed Pre-emergence (flood test species), scale 0 to 10 (0 no effect, 10 complete control)
[10] = Rate 125 g/ha, Pre-emergence, flood test species, scale 0 to 10 where 0 is no effect and 10 is complete control
[11] = Rate 250 g/ha, Pre-emergence, flood-test species, scale 0 to 10, 0 is no effect, 10 is complete control
[12] = Rate 500 g/ha, Pre-emergence, flood test species, scale 0 to 10 (0 no effect, 10 complete control)

Cc1ccccc1-n1c(=O)on(C(=O)N(c2cccc(F)c2)C(C)C)c1=O [Compound 269]
Giant foxtail plant response rating (giant foxtail; [1]): 3 | Giant foxtail plant response rating (giant foxtail; [2]): 10 | Giant foxtail plant response rating (giant foxtail; [3]): 0 | Giant foxtail plant response rating (giant foxtail; [4]): 6 | Plant response rating, Giant foxtail (giant foxtail; [5]): 0 | Giant foxtail plant response rating (giant foxtail; [6]): 2 | Wild oats plant response rating (wild oat; [1]): 0 | Wild oats plant response rating (wild oat; [2]): 2 | Plant response rating, Wild oats (wild oat; [7]): 4 | Wild oats plant response rating (wild oat; [3]): 0 | Plant response rating, Wild oats (wild oat; [5]): 0 | Wild oats plant response rating (wild oat; [6]): 3 | Sugarbeets plant response rating (sugar beet; [1]): 0 | Sugarbeets plant response rating (sugar beet; [2]): 0 | Plant response rating, Sugarbeets (sugar beet; [7]): 4 | Sugarbeets plant response rating (sugar beet; [3]): 0 | Sugarbeets plant response rating (sugar beet; [4]): 0 | Plant response rating, Sugarbeets (sugar beet; [5]): 0 | Sugarbeets plant response rating (sugar beet; [6]): 0 | Rape plant response rating (rape; [1]): 0 | Rape plant response rating (rape; [2]): 0 | Plant response rating, Rape (rape; [7]): 0 | Rape plant response rating (rape; [3]): 0 | Rape plant response rating (rape; [4]): 0 | Plant response rating, Rape (rape; [5]): 0 | Rape plant response rating (rape; [6]): 0 | Wheat plant response rating (wheat; [1]): 0 | Wheat plant response rating (wheat; [2]): 0 | Plant response rating, Wheat (wheat; [7]): 0 | Wheat plant response rating (wheat; [3]): 0 | Wheat plant response rating (wheat; [4]): 0 | Plant response rating, Wheat (wheat; [5]): 2 | Wheat plant response rating (wheat; [6]): 4 | Corn plant response rating (corn; [1]): 0 | Corn plant response rating (corn; [2]): 0 | Plant response rating, Corn (corn; [7]): 0 | Corn plant response rating (corn; [8]): 0 | Corn plant response rating (corn; [3]): 0 | Corn plant response rating (corn; [4]): 0 | Plant response rating, Corn (corn; [5]): 0 | Corn plant response rating (corn; [6]): 0 | Rice plant response rating (rice; [9]): 0 | Rice plant response rating (rice; [10]): 0 | Rice plant response rating (rice; [11]): 0 | Rice plant response rating (rice; [12]): 0 | B. signalgrass plant response rating (surinam grass; [1]): 0 | B. signalgrass plant response rating (surinam grass; [2]): 6 | Plant response rating, B. signalgrass (surinam grass; [7]): 7 | B. signalgrass plant response rating (surinam grass; [8]): 0 | B. signalgrass plant response rating (surinam grass; [3]): 0 | B. signalgrass plant response rating (surinam grass; [4]): 6 | Plant response rating, B. signalgrass (surinam grass; [5]): 0 | B. signalgrass plant response rating (surinam grass; [6]): 0 | Velvetleaf plant response rating (velvetleaf; [1]): 0 | Velvetleaf plant response rating (velvetleaf; [2]): 0 | Plant response rating, Velvetleaf (velvetleaf; [7]): 0 | Velvetleaf plant response rating (velvetleaf; [3]): 0 | Velvetleaf plant response rating (velvetleaf; [4]): 0 | Plant response rating, Velvetleaf (velvetleaf; [5]): 3 | Velvetleaf plant response rating (velvetleaf; [6]): 3 | Bedstraw plant response rating (bedstraw; [1]): 0 | Bedstraw plant response rating (bedstraw; [2]): 0 | Plant response rating, Bedstraw (bedstraw; [7]): 0 | Bedstraw plant response rating (bedstraw; [3]): 4 | Bedstraw plant response rating (bedstraw; [4]): 0 | Plant response rating, Bedstraw (bedstraw; [5]): 4 | Bedstraw plant response rating (bedstraw; [6]): 7 | Soybean plant response rating (soybean; [1]): 0 | Soybean plant response rating (soybean; [2]): 0 | Plant response rating, Soybean (soybean; [7]): 4 | Soybean plant response rating (soybean; [3]): 1 | Soybean plant response rating (soybean; [4]): 0 | Plant response rating, Soybean (soybean; [5]): 3 | Soybean plant response rating (soybean; [6]): 3 | S. Flatsedge plant response rating (smallflower flatsedge; [9]): 0 | S. Flatsedge plant response rating (smallflower flatsedge; [10]): 0 | S. Flatsedge plant response rating (smallflower flatsedge; [11]): 0 | S. Flatsedge plant response rating (smallflower flatsedge; [12]): 0 | Cocklebur plant response rating (cocklebur; [1]): 0 | Cocklebur plant response rating (cocklebur; [2]): 0 | Plant response rating, Cocklebur (cocklebur; [7]): 0 | Cocklebur plant response rating (cocklebur; [8]): 0 | Plant response rating, Cocklebur (cocklebur; [5]): 1 | Cocklebur plant response rating (cocklebur; [6]): 2 | Redroot pigweed plant response rating (pigweed; [1]): 0 | Redroot pigweed plant response rating (pigweed; [2]): 4 | Plant response rating, Redroot pigweed (pigweed; [7]): 4 | Redroot pigweed plant response rating (pigweed; [3]): 4 | Redroot pigweed plant response rating (pigweed; [4]): 0 | Plant response rating, Redroot pigweed (pigweed; [5]): 5 | Redroot pigweed plant response rating (pigweed; [6]): 6 | Morningglory plant response rating (morningglory; [1]): 0 | Morningglory plant response rating (morningglory; [2]): 0 | Plant response rating, Morningglory (morningglory; [7]): 0 | Morningglory plant response rating (morningglory; [3]): 3 | Morningglory plant response rating (morningglory; [4]): 0 | Plant response rating, Morningglory (morningglory; [5]): 5 | Morningglory plant response rating (morningglory; [6]): 7 | Blackgrass plant response rating (blackgrass; [1]): 0 | Blackgrass plant response rating (blackgrass; [2]): 3 | Plant response rating, Blackgrass (blackgrass; [7]): 7 | Blackgrass plant response rating (blackgrass; [8]): 0 | Blackgrass plant response rating (blackgrass; [3]): 0 | Blackgrass plant response rating (blackgrass; [4]): 2 | Plant response rating, Blackgrass (blackgrass; [5]): 2 | Blackgrass plant response rating (blackgrass; [6]): 5
